Data published in ChEMBL document CHEMBL5247648, “Design, Synthesis, and Anti-Cancer Evaluation of Novel Cyclic Phosphate Prodrug of Gemcitabine” (J Med Chem, 2023).
Active and inactive are the calls of the source. The rule behind the calls is not given here.

Experiments:
MM1.S = assay: Antiproliferative activity against human MM1.S cells assessed as inhibition of cell proliferation treated for 72 hrs by resazurin dye-based fluorescence assay; type: functional
BXPC-3 [1] = assay: Antiproliferative activity against human BXPC-3 cells assessed as inhibition of cell proliferation treated for 72 hrs by resazurin dye-based fluorescence assay; type: functional; settings: BXPC-3, 72 h
MIA PaCa-2 = assay: Antiproliferative activity against human MIA PaCa-2 cells assessed as inhibition of cell proliferation treated for 72 hrs by resazurin dye-based fluorescence assay; type: functional; settings: MIA PaCa-2, 72 h
CWR22R [2] = assay: Antiproliferative activity against human 22Rv1 cells assessed as inhibition of cell proliferation treated for 72 hrs by resazurin dye-based fluorescence assay; type: functional; settings: 22Rv1, 72 h
MV4-11 = assay: Antiproliferative activity against human MV4-11 cells assessed as inhibition of cell proliferation treated for 72 hrs by resazurin dye-based fluorescence assay; type: functional; settings: MV4-11, 72 h
JeKo-1 = assay: Antiproliferative activity against human JeKo-1 cells assessed as inhibition of cell proliferation treated for 72 hrs by resazurin dye-based fluorescence assay; type: functional; settings: JeKo-1, 72 h
Huh-7 = assay: Antiproliferative activity against human Huh-7 cells assessed as inhibition of cell proliferation treated for 72 hrs by resazurin dye-based fluorescence assay; type: functional; settings: Huh-7, 72 h
BXPC-3 [3] = assay: Induction of apoptosis in human BXPC-3 cells assessed as viable cells at 100 nM incubated for 24 hrs by […] (reference value: 93.51 %); type: functional; settings: read-out: Activity
BXPC-3 [4] = assay: Induction of apoptosis in human BXPC-3 cells assessed as early cells at 100 nM incubated for 24 hrs by […] (reference value: 1.68 %); type: functional
BXPC-3 [5] = assay: Induction of apoptosis in human BXPC-3 cells assessed as late cells at 100 nM incubated for 24 hrs by […] (reference value: 1.24 %); type: functional
BXPC-3 [6] = assay: Induction of apoptosis in human BXPC-3 cells assessed as necrotic cells at 100 nM incubated for 24 hrs by […] (reference value: 3.57 %); type: functional
BXPC-3 [7] = assay: Induction of apoptosis in human BXPC-3 cells assessed as viable cells at 25 nM incubated for 24 hrs by […] (reference value: 93.51 %); type: functional; settings: read-out: Activity
BXPC-3 [8] = assay: Induction of apoptosis in human BXPC-3 cells assessed as early cells at 25 nM incubated for 24 hrs by […] (reference value: 1.68 %); type: functional
BXPC-3 [9] = assay: Induction of apoptosis in human BXPC-3 cells assessed as late cells at 25 nM incubated for 24 hrs by […] (reference value: 1.24 %); type: functional
BXPC-3 [10] = assay: Induction of apoptosis in human BXPC-3 cells assessed as necrotic cells at 25 nM incubated for 24 hrs by […] (reference value: 3.57 %); type: functional
BXPC-3 [11] = assay: Induction of apoptosis in human BXPC-3 cells assessed as viable cells at 50 nM incubated for 24 hrs by […] (reference value: 93.51 %); type: functional; settings: read-out: Activity
BXPC-3 [12] = assay: Induction of apoptosis in human BXPC-3 cells assessed as early cells at 50 nM incubated for 24 hrs by […] (reference value: 1.68 %); type: functional
BXPC-3 [13] = assay: Induction of apoptosis in human BXPC-3 cells assessed as late cells at 50 nM incubated for 24 hrs by […] (reference value: 1.24 %); type: functional
BXPC-3 [14] = assay: Induction of apoptosis in human BXPC-3 cells assessed as necrotic cells at 50 nM incubated for 24 hrs by […] (reference value: 3.57 %); type: functional
BXPC-3 [15] = assay: Upregulation of P21 WAF1/Cip1 expression in human BXPC-3 cells at 25 to 100 nM incubated for 24 hrs by Western blot analysis; type: functional, cell-based; settings: dose 25-100 nM
BXPC-3 [16] = assay: Upregulation of cleaved caspase-3 expression in human BXPC-3 cells at 25 to 100 nM incubated for 24 hrs by Western blot analysis; type: functional, cell-based; settings: dose 25-100 nM
BXPC-3 [17] = assay: Cell cycle arrest in human BXPC-3 cells assessed as cell accumulation at S phase at 25 to 100 nM incubated for 24 hrs by flow cytometry; type: functional, cell-based; settings: dose 25-100 nM
[18] = Metabolic stability in rat plasma assessed as half life incubated for 6 hrs by HPLC analysis; type: ADME, cell-free
[19] = Metabolic stability in beagle dog plasma assessed as half life incubated for 6 hrs by HPLC analysis; type: ADME, cell-free, Canis lupus familiaris
[20] = Metabolic stability in human plasma assessed as half life incubated for 6 hrs by HPLC analysis; type: ADME, cell-free
[21] = Prodrug conversion in human plasma assessed as metabolites formation incubated for 24 hrs by 31P-NMR analysis; type: ADME, cell-free
[22] = Prodrug conversion in human plasma assessed as mixture of benzyl 2-(((((2R,3R,5R)-5-(4-amino-2-oxopyrimidin-1(2H)-yl)-4,4-difluoro-3-hydroxytetrahydrofuran-2-yl)methoxy)(hydroxy)phosphoryl)oxy)acetate and benzyl 2-(((((2R,3R,5R)-5-(4-amino-2-oxopyrimidin-1(2H)-yl)-4,4-difluoro-2-(hydroxymethyl)tetrahydrofuran-3-yl)oxy)(hydroxy)phosphoryl)oxy)acetate metabolites formation incubated for 72 hrs by 1H-NMR analysis; type: ADME, cell-free
[23] = Prodrug conversion in human plasma assessed as mixture of benzyl 2-(((((2R,3R,5R)-5-(4-amino-2-oxopyrimidin-1(2H)-yl)-4,4-difluoro-3-hydroxytetrahydrofuran-2-yl)methoxy)(hydroxy)phosphoryl)oxy)acetate and benzyl 2-(((((2R,3R,5R)-5-(4-amino-2-oxopyrimidin-1(2H)-yl)-4,4-difluoro-2-(hydroxymethyl)tetrahydrofuran-3-yl)oxy)(hydroxy)phosphoryl)oxy)acetate metabolites formation incubated for 72 hrs by 31P-NMR analysis; type: ADME, cell-free
[24] = Prodrug conversion in human plasma assessed as mixture of benzyl 2-(((((2R,3R,5R)-5-(4-amino-2-oxopyrimidin-1(2H)-yl)-4,4-difluoro-3-hydroxytetrahydrofuran-2-yl)methoxy)(hydroxy)phosphoryl)oxy)acetate and benzyl 2-(((((2R,3R,5R)-5-(4-amino-2-oxopyrimidin-1(2H)-yl)-4,4-difluoro-2-(hydroxymethyl)tetrahydrofuran-3-yl)oxy)(hydroxy)phosphoryl)oxy)acetate metabolites formation incubated for 72 hrs by LC-MS analysis; type: ADME, cell-free
[25] = AUC (0 to infinity) in Beagle dog at 1 mg/kg, iv measured for 0.083 to 24 hrs by LC-MS/MS analysis; type: ADME, organism-based, Canis lupus familiaris; design: time upper 24 hrs, time lower 0.083 hrs, dose 1 mg/kg, route iv; settings: in vivo
[26] = Half life in Beagle dog at 1 mg/kg, iv measured for 0.083 to 24 hrs by LC-MS/MS analysis; type: ADME, organism-based, Canis lupus familiaris; settings: in vivo, time 0.083-24 hrs
[27] = Clearance in Beagle dog at 1 mg/kg, iv measured for 0.083 to 24 hrs by LC-MS/MS analysis; type: ADME, organism-based, Canis lupus familiaris; settings: in vivo, time 0.083-24 hrs
[28] = Cmax in Beagle dog at 1 mg/kg, iv measured for 0.083 to 24 hrs by LC-MS/MS analysis; type: ADME, organism-based, Canis lupus familiaris; design: time upper 24 hrs, time lower 0.083 hrs, dose 1 mg/kg, route iv; settings: in vivo
CWR22R [29] = assay: In vivo antitumor activity against human 22Rv1 cells xenografted in castrated male nude Balb/c mouse assessed as tumor growth inhibition at 50 mg/kg, ip administered twice a week measured after 28 days relative to control; type: functional; settings: 22Rv1, 672 h, time 28 day, read-out: TGI
CWR22R [30] = assay: In vivo antitumor activity against human 22Rv1 cells xenografted in castrated male nude Balb/c mouse assessed as relative increment ratio at 50 mg/kg, ip administered twice a week measured after 28 days relative to control; type: functional; settings: time 28 day
CWR22R [31] = assay: Antiproliferation activity against human 22Rv1 cells xenografted in castrated male nude Balb/c mouse assessed as downregulation of Ki-67 level at 50 mg/kg, ip administered twice a week measured after 28 days by immunohistochemical assay relative to control; type: functional, organism-based; settings: time 28.0 day
[32] = Toxicity in castrated male nude Balb/c mouse xenografted with human 22Rv1 cells assessed as tolerance at 50 mg/kg, ip administered twice a week measured after 28 days; type: organism-based, CWR22R; settings: in vivo, 672 h, time 28 day
[33] = Toxicity in castrated male nude Balb/c mouse xenografted with human 22Rv1 cells assessed as animal weight loss at 50 mg/kg, ip administered twice a week measured after 28 days; type: organism-based, CWR22R; settings: in vivo, 672 h, time 28 day
[34] = Toxicity in castrated male nude Balb/c mouse xenografted with human 22Rv1 cells assessed as toxic signs at 50 mg/kg, ip administered twice a week measured after 28 days; type: organism-based, CWR22R; settings: in vivo, 672 h, time 28 day
BXPC-3 [35] = assay: In vivo antitumor activity against human BXPC-3 cells xenografted in nude Balb/c mouse assessed as tumor growth inhibition at 50 to 80 mg/kg, ip measured after 28 days; type: functional, organism-based; settings: dose 50-80 mg/kg, time 28.0 day
[36] = Toxicity in nude Balb/c mouse xenografted with human BXPC-3 cells assessed as apparent signs of toxicity at 50 to 80 mg/kg, ip measured after 28 days; type: organism-based; settings: in vivo, 672 h, dose 50-80 mg/kg, time 28 day

Nc1ccn([C@@H]2O[C@@H]3COP(=O)(OCC(=O)OCc4ccccc4)O[C@H]3C2(F)F)c(=O)n1 (stereo partly specified)
IC50 (MM1.S): 3.6 nM
IC50 (BXPC-3 [1]): 16.5 nM
IC50 (MIA PaCa-2): 12.5 nM
IC50 (CWR22R [2]): 10.6 nM
IC50 (MV4-11): 5.4 nM
IC50 (JeKo-1): 19.2 nM
IC50 (Huh-7): 16.2 nM
viability at 0.1 µM (BXPC-3 [3]): 88.6%
Activity (BXPC-3 [4]): 3.5%
Activity (BXPC-3 [5]): 3.48%
Activity (BXPC-3 [6]): 4.42%
viability at 0.025 µM (BXPC-3 [7]): 91.7%
Activity (BXPC-3 [8]): 2.87%
Activity (BXPC-3 [9]): 2.31%
Activity (BXPC-3 [10]): 3.17%
viability at 0.05 µM (BXPC-3 [11]): 90.1%
Activity (BXPC-3 [12]): 3.19%
Activity (BXPC-3 [13]): 2.73%
Activity (BXPC-3 [14]): 4.02%
Activity (BXPC-3 [15]): Active
Activity (BXPC-3 [16]): inactive
Activity (BXPC-3 [17]): Active
half-life [18]: 40 min
half-life [19]: 40 min
half-life [20]: 40 min
Drug metabolism [21]: Metabolite_Detected
Drug metabolism [22]: Metabolite_Detected
Drug metabolism [23]: Metabolite_Detected
Drug metabolism [24]: Metabolite_Detected
AUC(0-inf) [25]: 520 ng·h/mL
half-life [26]: 7.2 min
clearance [27]: 32.5 mL/min/kg
Cmax [28]: 3600 ng/mL
inhibition in vivo at 50 mg/kg (CWR22R [29]): 68.5%
T/C (CWR22R [30]): 35.2%
Activity (CWR22R [31]): Active
Activity [32]: Non-Toxic
Activity [33]: Non-Toxic
Activity [34]: Non-Toxic
Activity (BXPC-3 [35]): Active
Activity [36]: Non-Toxic
